Assay results as given in US10646478B2, “Methods for treatment of melanoma” (CHILDREN'S MEDICAL CENTER CORPORATION, priority 2011, dated 2020).

Assays:
[1] = tested on: A375 cell line; experiment: Microarray analysis of A375 cells treated with leflunomide; type: cell-based, human; settings: 25 uM, 3 days
Method: Expression analysis was performed using Illumina WG6 v3 arrays, and the data was analyzed using Illumina Genome Studio.

[2] = tested on: human melanoma cell lines (A375, Hs.294t, RPMI7951); experiment: In vitro melanoma proliferation assay (CellTiterGlo); type: cell-based; settings: A375, Hs.294t, RPMI7951; CellTiterGlo
Method: Human melanoma cell lines (A375, RPMI7951, Hs.294T, MAMLE-3M) were obtained from the American Type Culture Collection. The 8988 cell line was provided by Alec Kimmelman at Dana Farber, and the PANC1 and MDA-231-MB lines were provided by Rania Hartouche at Harvard. Cells were cultured in DMEM/10% FCS at 37 C, 5% CO2. For proliferation assays, 96-well clear bottom plates were used to plate cells at a density of 5,000 cells/well (RPMI7951 and A375) or 10,000 cells/well (MAMLE-3M-3M and Hs.294T) in 100 ul containing indicated concentrations of A771726 or PLX4720 or DMSO. All conditions were tested in triplicate. Media was changed at day 2, and proliferation rate was measured at day 4 using the CellTiterGlo assay kit (Promega). All values are expressed are the % of luciferase relative to the DMSO control well. Differences between groups were statistically analyzed using a generalized linear ANOVA model taking into account factors of PLX4720, A771726 and dose. IC50's were calculated using a log-logistic model.

[3] = tested on: Human BRAFV600 (M491) cells; experiment: Human BRAFV600 (M491) primary melanoma xenografts in mice; type: in vivo, mouse; settings: in combination with BRAFi and MEKi
[4] = tested on: neural crest stem cells (NCSCs) from fetal (E14.5) rat gut; experiment: Rat neural crest stem cell assays (self-renewal, colony size, differentiation); type: cell-based
Method: Enteric NCSCs from the fetal (E14.5) rat gut were isolated using flow cytometry to select the 1%-2% of cells expressing the highest levels p75 and α4 integrin as previously described^9. Cells were plated at clonal density in two wells/treatment and cultured in self-renewal medium for 8 days in LEF, A771726 or the vehicle (DMSO) followed by differentiation medium+/−LEF, A771726 or DMSO for 6 days. Cultures were fixed in 4% PFA then stained with antibodies against peripherin, GFAP, and SMA to identify neurons (N), glia (G) and myofibroblasts (M) respectively (U=unstained cells). A total of 3 to 4 independent experiments were performed, and differences measured by ANOVA followed by Bonferonni posthoc comparison. Self-renewal medium contains: DMEM-low glucose, 15% Chick Embryo Extract (CEE), Penn/Strep (P/S), 1% N2 supplement, 2% B27 supplement, 110 nM Retinoic Acid, 50 μM 2-mercaptoethanol 20 ng/ml bFGF, and 20 ng/ml IGF-1. Differentiation medium is the same except it contains 1% CEE, 10 ng/ml bFGF and no IGF-1. Differences between groups were calculated using ANOVA followed by posthoc Sheffe.
Dissociated fetal rat gut cells were plated at clonal density in non-adherent conditions in self-renewal medium with LEF, a77 or DMSO for 10 days^10. Three to five primary neurospheres per treatment were individually re-plated in adherent conditions with LEF, a77 or DMSO and after three days were dissociated into a single cell suspension using trypsin and collagenase IV. Dissociated cells from each neurosphere were re-plated in non-adherent conditions without LEF or a77 and after 10 days, the number of secondary neurospheres were counted and compared. To assess the number of multipotent primary and secondary neurospheres, a subset of neurospheres were plated adherently for 8 days in self-renewal medium followed by 6 days in differentiation medium. Cultures were fixed in 4% PFA and stained with antibodies against peripherin, GFAP, and SMA to identify neurons (N), glia (G) and myofibroblasts (M) respectively. A total of 5 independent experiments were analyzed, and the number of multipotent secondary neurospheres on a given day are normalized to the DMSO control wells, and differences calculated by ANOVA.

[5] = tested on: CYP450 isoenzymes; settings: parent compound and active metabolite; cited from earlier work
[6] = tested on: neural crest derivatives; experiment: Zebrafish neural crest assay (melanocytes, mitf-GFP, iridophores, mbp-mCherry glia, jaw cartilage); type: in vivo
Text: The mitf-GFP transgenic was scored at 24 hpf, as this is the point of maximal GFP intensity.

[7] = arthritis patients; cited from earlier work
[8] = tested on: sox10, dct, ntl, gata1 expression; experiment: In situ hybridization for neural crest and non-neural crest lineage markers; settings: zebrafish, in vivo
[9] = tested on: pigmented melanocytes in spt5m806 embryos; experiment: Spt5 hypomorphic experiments: pigmentation in spt5m806 incross; type: in vivo, zebrafish; settings: 3 uM
Text: This allele has only a mild pigment defect on its own. […] Embryos were scored at 48 hpf for pigmentation, scored as “unpigmented”, “light”, or “fully pigmented” as compared to untreated wells. Individual embryos were then genotyped for the spt5^m806 mutation as previously described^14. Kruskall-Wallis analysis was used to detect a difference between the genotyped groups.

[10] = tested on: 5' and 3' transcripts of mitf, dlb, beta-actin; experiment: 5'-3' transcriptional elongation assay (qRT-PCR on whole embryos); type: in vivo, zebrafish
Method: Primers were designed to the noted genes, situated at the very 5′ end or 3′ end of the gene, situated in the UTR if annotated. qRT-PCR was then performed using SYBR Green, and each primer pair was normalized to an average of the Ct value for the 5′ beta-actin and 3′ beta-actin primers. Fold-change was calculated using the delta-delta Ct method, and all values are expressed relative to the DMSO control, after log 2 transformation. Differences between groups were assessed using t-tests. Primer sequences available upon request.

[11] = 6.5 uM, 24 hpf, relative to DMSO

For `Cc1oncc1C(=O)Nc1ccc(C(F)(F)F)cc1` [leflunomide], the “gene expression in A375 (microarray)” value [1] was “downregulation of genes required for neural crest development”, the “proliferation of human melanoma cell lines” value [2] was “dose-dependent decrease in melanoma proliferation” and the tumor growth [3] was “significantly impair tumor growth”. The “colony size reduced compared to controls” value [4] was 18%, the “differentiation or survival of specific progeny” value [4] was “no effect on differentiation or survival of specific progeny” and the “number of self-renewing NCSCs from primary stem cell colonies” value [4] was 27+/−5.35 % of controls. The “metabolism by CYP450 isoenzymes” value [5] was “Neither the parent compound nor the active metabolite is metabolized by CYP450 isoenzymes”, the microphthalmia ([6]; 2.5 uM from 5-72 hpf) was “microphthalmia was induced” and the “reflective iridophores on the surface of the eye” value ([6]; 2.5 uM from 5-72 hpf) was “reduction of reflective iridophores on the surface of the eye”. For the same compound, the “mitf-GFP+ cells” value ([6]; 24 hpf) was “nearly complete loss of mitf-GFP+ cells”, the pigmented melanocytes ([6]; 36-48 hpf) was “devoid of pigmented melanocytes” and the jaw cartilage ([6]; 72 hpf) was “jaw cartilage disruption”. For the same compound, the “myelin basic protein (mbp)-mCherry glial cells” value ([6]; 72 hpf) was “reduction of myelin basic protein (mbp)-mCherry glial cells”, the “treatment-related adverse event more prevalent than with placebo” value [7] was “elevation of liver transaminase” and the “expression of sox10 and dct (ISH)” value [8] was “reduced expression of sox10 and dct”. The “intensity of mesoderm marker ntl and blood marker gata1 (ISH)” value [8] was “No significant difference is seen in intensity”, the “embryos with few or no melanocytes, spt5m806 mutant” value ([9]; mutant embryos) was 99% and the “embryos with few or no melanocytes, wild type” value ([9]; wild type embryos) was 0%. For the same compound, the “dlb 3′ transcript abundance” value [10, 11] was 0.74+/−0.07 fold, the “dlb 5′ transcript abundance” value [10, 11] was 1.13+/−0.14 fold and the “mitf 3′ transcript abundance” value [10, 11] was 0.39+/−0.07 fold. For the same compound, the “mitf 5′ transcript abundance” value [10, 11] was 3.75+/−1.19 fold, the “beta-actin 3′ transcript abundance” value ([10]; control gene, 6.5 uM, 24 hpf) was 0.99+/−0.06 fold and the “beta-actin 5′ transcript abundance” value ([10]; control gene, 6.5 uM, 24 hpf) was 1.03+/−0.07 fold. For the same compound, the “3′ transcription of mitf, pvalb2, her4.2 and dlb” value ([10]; leflunomide vs. DMSO) was “significant decrease in 3′ transcription”.
